Measured values as given in the supplement of paper PMC10307832.

What was measured:
Test in all cases: relative viability (nuclei count vs DMSO), 5 days (fraction); higher = more cells survive
[1] = compound: CN1CCN(CC1)C2=CC(=C(C=C2)NC3=NC(=C(S3)C(=O)C4=C(C=CC=C4Cl)Cl)N)OC [XMD14-99] + Nc1ncn([C@H]2C[C@H](O)[C@@H](CO)O2)c(=O)n1 [Decitabine] (partner 2 µM)
In short: (§1)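 Dosing by pin tool came one day after lung cancer cell lines were seeded in 1536-well plates, using either one drug or a fixed anchor-drug dose plus five library-drug doses (not always all listed) in √10 steps. After 5 days, nuclei were counted on 4× images. Relative viability is treated-well nuclei count divided by vehicle-well nuclei count, and values are medians of duplicate plates.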

[2] = compound: N[C@@H]1CCCN(c2c(/C=C3\SC(=O)NC3=O)cccc2-c2ccccc2)C1 [AZD1208] + Cc1cc(Nc2cc(N3CCN(C)CC3)nc(Sc3ccc(NC(=O)C4CC4)cc3)n2)n[nH]1 [Tozasertib] (partner 0.1 µM)
In short: as §1

[3] = compound: CN1CCN(CC1)C2=CC(=C(C=C2)NC3=NC(=C(S3)C(=O)C4=C(C=CC=C4Cl)Cl)N)OC [XMD14-99] + C[C@@H](Oc1cc(-c2cnn(C3CCNCC3)c2)cnc1N)c1c(Cl)ccc(F)c1Cl [Crizotinib] (partner 1 µM)
In short: as §1

[4] = compound: N[C@@H]1CCCN(c2c(/C=C3\SC(=O)NC3=O)cccc2-c2ccccc2)C1 [AZD1208] + O=C(CCCCCCC(=O)Nc1ccccc1)NO [Vorinostat] (partner 1 µM)
In short: as §1

Work on LU99A yielded a relative viability ([1]; first compound 0.08 µM) of 0.852, a relative viability ([1]; first compound 0.8 µM) of 0.918 and a relative viability ([1]; first compound 2.53 µM) of 0.784. It also gave a relative viability ([1]; first compound 8 µM) of 0.669, a relative viability ([2]; first compound 0.08 µM) of 0.288 and a relative viability ([2]; first compound 0.253 µM) of 0.304. For the same cell line, the relative viability ([2]; first compound 0.8 µM) was 0.276, the relative viability ([2]; first compound 2.53 µM) was 0.3 and the relative viability ([2]; first compound 8 µM) was 0.203. The relative viability ([3]; first compound 0.08 µM) was 0.612, the relative viability ([3]; first compound 0.8 µM) was 0.489 and the relative viability ([3]; first compound 2.53 µM) was 0.542. For the same cell line, the relative viability ([3]; first compound 8 µM) was 0.468, the relative viability ([4]; first compound 0.08 µM) was 0.471 and the relative viability ([4]; first compound 0.253 µM) was 0.618. It also gave a relative viability ([4]; first compound 0.8 µM) of 0.481, a relative viability ([4]; first compound 2.53 µM) of 0.467 and a relative viability ([4]; first compound 8 µM) of 0.332.
For NCI-H1355, the relative viability ([1]; first compound 0.08 µM) was 0.381, the relative viability ([1]; first compound 0.8 µM) was 0.339 and the relative viability ([1]; first compound 2.53 µM) was 0.343. It also gave a relative viability ([1]; first compound 8 µM) of 0.346, a relative viability ([2]; first compound 0.08 µM) of 0.539 and a relative viability ([2]; first compound 0.253 µM) of 0.474. The relative viability ([2]; first compound 0.8 µM) was 0.407, the relative viability ([2]; first compound 2.53 µM) was 0.389 and the relative viability ([2]; first compound 8 µM) was 0.308. The relative viability ([3]; first compound 0.08 µM) was 1.15, the relative viability ([3]; first compound 0.8 µM) was 1.11 and the relative viability ([3]; first compound 2.53 µM) was 0.949. It also gave a relative viability ([3]; first compound 8 µM) of 0.879, a relative viability ([4]; first compound 0.08 µM) of 0.638 and a relative viability ([4]; first compound 0.253 µM) of 0.672. The relative viability ([4]; first compound 0.8 µM) was 0.558, the relative viability ([4]; first compound 2.53 µM) was 0.603 and the relative viability ([4]; first compound 8 µM) was 0.544.
HCC-78 was tested, and the relative viability ([1]; first compound 0.08 µM) was 0.709, the relative viability ([1]; first compound 0.8 µM) was 0.646 and the relative viability ([1]; first compound 2.53 µM) was 0.822. For the same cell line, the relative viability ([1]; first compound 8 µM) was 0.47, the relative viability ([2]; first compound 0.08 µM) was 0.456 and the relative viability ([2]; first compound 0.253 µM) was 0.412. For the same cell line, the relative viability ([2]; first compound 0.8 µM) was 0.437, the relative viability ([2]; first compound 2.53 µM) was 0.288 and the relative viability ([2]; first compound 8 µM) was 0.256. It also gave a relative viability ([3]; first compound 0.08 µM) of 0.325, a relative viability ([3]; first compound 0.8 µM) of 0.319 and a relative viability ([3]; first compound 2.53 µM) of 0.351. For the same cell line, the relative viability ([3]; first compound 8 µM) was 0.255, the relative viability ([4]; first compound 0.08 µM) was 0.435 and the relative viability ([4]; first compound 0.253 µM) was 0.444. For the same cell line, the relative viability ([4]; first compound 0.8 µM) was 0.413, the relative viability ([4]; first compound 2.53 µM) was 0.403 and the relative viability ([4]; first compound 8 µM) was 0.37.
For NCI-H1563, the relative viability ([3]; first compound 0.08 µM) was 0.858, the relative viability ([3]; first compound 0.8 µM) was 0.905 and the relative viability ([3]; first compound 2.53 µM) was 0.896. It also gave a relative viability ([3]; first compound 8 µM) of 0.786.
In the case of HCC-15, the relative viability ([1]; first compound 0.08 µM) is reported as 0.668, the relative viability ([1]; first compound 0.8 µM) is reported as 0.605 and the relative viability ([1]; first compound 2.53 µM) is reported as 0.599. The relative viability ([1]; first compound 8 µM) was 0.415, the relative viability ([2]; first compound 0.08 µM) was 0.362 and the relative viability ([2]; first compound 0.253 µM) was 0.306. For the same cell line, the relative viability ([2]; first compound 0.8 µM) was 0.241, the relative viability ([2]; first compound 2.53 µM) was 0.186 and the relative viability ([2]; first compound 8 µM) was 0.184. For the same cell line, the relative viability ([3]; first compound 0.08 µM) was 0.773, the relative viability ([3]; first compound 0.8 µM) was 0.816 and the relative viability ([3]; first compound 2.53 µM) was 0.807. For the same cell line, the relative viability ([3]; first compound 8 µM) was 0.605, the relative viability ([4]; first compound 0.08 µM) was 0.805 and the relative viability ([4]; first compound 0.253 µM) was 0.859. It also gave a relative viability ([4]; first compound 0.8 µM) of 0.834, a relative viability ([4]; first compound 2.53 µM) of 0.83 and a relative viability ([4]; first compound 8 µM) of 0.692.
Work on EKVX yielded a relative viability ([1]; first compound 0.08 µM) of 0.274, a relative viability ([1]; first compound 0.8 µM) of 0.322 and a relative viability ([1]; first compound 2.53 µM) of 0.316. For the same cell line, the relative viability ([1]; first compound 8 µM) was 0.239, the relative viability ([2]; first compound 0.08 µM) was 0.444 and the relative viability ([2]; first compound 0.253 µM) was 0.462. For the same cell line, the relative viability ([2]; first compound 0.8 µM) was 0.376, the relative viability ([2]; first compound 2.53 µM) was 0.388 and the relative viability ([2]; first compound 8 µM) was 0.262. It also gave a relative viability ([3]; first compound 0.08 µM) of 0.976, a relative viability ([3]; first compound 0.8 µM) of 0.808 and a relative viability ([3]; first compound 2.53 µM) of 0.898. The relative viability ([3]; first compound 8 µM) was 0.741, the relative viability ([4]; first compound 0.08 µM) was 0.766 and the relative viability ([4]; first compound 0.253 µM) was 0.583. It also gave a relative viability ([4]; first compound 0.8 µM) of 0.744, a relative viability ([4]; first compound 2.53 µM) of 0.735 and a relative viability ([4]; first compound 8 µM) of 0.763.
In the case of NCI-H2126, the relative viability ([1]; first compound 0.08 µM) is reported as 0.629, the relative viability ([1]; first compound 0.8 µM) is reported as 0.537 and the relative viability ([1]; first compound 2.53 µM) is reported as 0.611. It also gave a relative viability ([1]; first compound 8 µM) of 0.503, a relative viability ([2]; first compound 0.08 µM) of 0.743 and a relative viability ([2]; first compound 0.253 µM) of 0.784. It also gave a relative viability ([2]; first compound 0.8 µM) of 0.816, a relative viability ([2]; first compound 2.53 µM) of 0.632 and a relative viability ([2]; first compound 8 µM) of 0.66. It also gave a relative viability ([3]; first compound 0.08 µM) of 1.01, a relative viability ([3]; first compound 0.8 µM) of 1.02 and a relative viability ([3]; first compound 2.53 µM) of 0.979. The relative viability ([3]; first compound 8 µM) was 0.937, the relative viability ([4]; first compound 0.08 µM) was 0.745 and the relative viability ([4]; first compound 0.253 µM) was 0.669. The relative viability ([4]; first compound 0.8 µM) was 0.676, the relative viability ([4]; first compound 2.53 µM) was 0.535 and the relative viability ([4]; first compound 8 µM) was 0.563.
Cell Line LK-2 has a relative viability ([1]; first compound 0.08 µM) of 0.258, a relative viability ([1]; first compound 0.8 µM) of 0.297 and a relative viability ([1]; first compound 2.53 µM) of 0.328. For the same cell line, the relative viability ([1]; first compound 8 µM) was 0.21, the relative viability ([2]; first compound 0.08 µM) was 0.157 and the relative viability ([2]; first compound 0.253 µM) was 0.2. The relative viability ([2]; first compound 0.8 µM) was 0.169, the relative viability ([2]; first compound 2.53 µM) was 0.13 and the relative viability ([2]; first compound 8 µM) was 0.168. The relative viability ([3]; first compound 0.08 µM) was 0.232, the relative viability ([3]; first compound 0.8 µM) was 0.193 and the relative viability ([3]; first compound 2.53 µM) was 0.2. It also gave a relative viability ([3]; first compound 8 µM) of 0.223, a relative viability ([4]; first compound 0.08 µM) of 0.329 and a relative viability ([4]; first compound 0.253 µM) of 0.322. It also gave a relative viability ([4]; first compound 0.8 µM) of 0.255, a relative viability ([4]; first compound 2.53 µM) of 0.302 and a relative viability ([4]; first compound 8 µM) of 0.247.
With NCI-H1437 the relative viability ([1]; first compound 0.08 µM) was 0.621, the relative viability ([1]; first compound 0.8 µM) was 0.469 and the relative viability ([1]; first compound 2.53 µM) was 0.458. The relative viability ([1]; first compound 8 µM) was 0.417, the relative viability ([2]; first compound 0.08 µM) was 0.429 and the relative viability ([2]; first compound 0.253 µM) was 0.378. It also gave a relative viability ([2]; first compound 0.8 µM) of 0.335, a relative viability ([2]; first compound 2.53 µM) of 0.353 and a relative viability ([2]; first compound 8 µM) of 0.351. It also gave a relative viability ([3]; first compound 0.08 µM) of 0.843, a relative viability ([3]; first compound 0.8 µM) of 0.905 and a relative viability ([3]; first compound 2.53 µM) of 0.822. The relative viability ([3]; first compound 8 µM) was 0.684, the relative viability ([4]; first compound 0.08 µM) was 0.805 and the relative viability ([4]; first compound 0.253 µM) was 0.93. For the same cell line, the relative viability ([4]; first compound 0.8 µM) was 0.933, the relative viability ([4]; first compound 2.53 µM) was 1 and the relative viability ([4]; first compound 8 µM) was 0.857.
